# Results: US20030125287A1, “Antisense oligonucleotides and methods to induce tumor cell death” (Hybridon, Inc., priority 2001, published 2003)
# Entries after “also recorded” stand apart in the source; their conditions may differ. Oligonucleotides are written 5' to 3', each unit as a sugar letter and its base; * is a phosphorothioate linkage, no mark a phosphodiester; rarer units and linkages stand in square brackets, end groups in braces. Plain capitals give the bases only. d = 2'-deoxy (DNA)
# Tests used:
# Format in all cases: cell-based, human
# TC620 cells = assay: Propidium iodide staining, nuclear morphology of TC620 cells; settings: for nuclear morphology by PI staining: 600 nM (FIG. 7); for number of cells in metaphase, with zVAD-fmk compared with oligonucleotide alone: 600 nM plus zVAD-fmk (FIG. 8B)
# Method: Propidium iodide (PI) staining was performed to investigate changes in nuclear morphology caused by treatment of TC620 cells with survivin antisense oligonucleotides. […] TC620 cells were treated with lipofectin (FIG. 7A), or 600 nM mismatch oligonucleotide 1132 (FIG. 7B), survivin antisense oligonucleotide 904 (FIGS. 7C and 7E), or 906 (FIG. 7D), and stained with PI. Quantification results for TC620 cells treated with 600 nM survivin antisense oligonucleotide 904, 906, or mismatch oligonucleotide 1132, alone or in the presence of zVAD-fmk, are shown in FIGS. 8A-B. Cells in metaphase were identified as those with chromosomes aligned on the metaphase plate.
# Survivin antisense oligonucleotide-treated cells were fixed with 4% paraformaldehyde for 30 min at room temperature, washed with 1×TBS, permeabilized with 0.1% Triton X-100 for 30 min and treated with 10 μg/ml DNasc free RNase A (Sigma) for 60 min. Nuclei were stained with 200 μg /ml PI for 30 min at 4° C. and washed twice with 1×TBS. Nuclear morphology was assessed on an inverted Olympus 1×70 fluorescence microscope equipped with phase and epifluorescence optics. For each treatment about 600 nuclei were scored as normal, condensed (apoptotic), or abnormal (macronuclei, multilobed) on 15 random, 40×objective fields in duplicate. Quantification results are mean±SEM obtained from two independent experiments performed in duplicate.
# MSN cells = assay: Trypan blue assay (cell death) in MSN cells; settings: for percentage of cells Trypan blue positive: MSN cells
# Method: The role of survivin as an inhibitor of apoptosis and as a survival protein for tumors was investigated by examining whether the down-regulation of survivin was sufficient to induce cell death in MSN cells. Following transfection with lipofectin, different concentrations of survivin antisense oligonucleotide 904 (200 nM, 400 nM, 600 nM), or the mismatched oligonucleotide 1132 (400 nM and 600 nM), the number of Trypan blue positive cells (only dead cells are stained by the Trypan blue stain) were counted 48 hours after treatment. The number of dead cells was assessed relative to the lipofectin-treated control cells. In the presence of 200 nM, 400 nM, and 600 nM concentrations of antisense oligonucleotide 904, the percentage of cells that were Trypan blue positive were 52%, 59% and 62%, respectively (FIG. 4A). The mismatched oligonucleotide 1132 (400 nM and 600 nM) was similar to the lipofectin control treatment, wherein 23% (400 nM) and 22% (600 nM) of the cells were Trypan blue-positive. About 6% of the cells in the untreated control were Trypan blue positive.
# In another experiment, following transfection with lipofectin, mismatched oligonucleotide 1132 (600 nM), or survivin antisense oligonucleotide 904 or 906 (600 nM), the numbers of Trypan blue positive cells (dead cells) were counted 48 h post-treatment. In the presence of 600 nM survivin antisense oligonucleotide 904 and 906, the percentages of cells that were Trypan blue positive were 73% and 81%, respectively (FIG. 4B). Upon treatment with lipofectin or the mismatched oligonucleotide 1132, only 7-11% of the cells were Trypan blue positive.
# Further experiments were conducted to examine whether survivin antisense oligonucleotide-induced cell death could be blocked by the broad-spectrum caspase inhibitor zVAD-fmk. MSN cells were treated with lipofectin or 600 nM survivin antisense oligonucleotide 904, 906, or mismatch oligonucleotide 1132 alone, or co-treated with 20 μM zVAD-fmk for 48 h, and stained with 0.04% Trypan blue.
# Cells were harvested 48 hours after survivin antisense treatment, stained with 0.04% Trypan blue (GIBCO), and counted on a hemocytometer. The number of Trypan blue positive cells relative to the total number of cells in each field was obtained and the data were expressed as a percentage of dead cells relative to the total cell number. Individual experiments were performed in triplicate. MSN cell studies were performed three times, while studies in TC620 cells were performed once.
# survivin = assay: Western blot of survivin protein in antisense oligonucleotide-treated MSN cells; settings: for decrease in survivin protein levels relative to lipofectin-treated control, normalized to β-tubulin / percentage of survivin protein over β-tubulin relative to lipofectin: 400 nM, 48 hours (FIG. 3A); for percentage of survivin protein over β-tubulin relative to lipofectin / effect on survivin protein levels: lipofectin; for effect on survivin protein levels: 48 hours
# Method: Six survivin (900-906) antisense oligonucleotides were administered at 400 nM to MSN cells in the presence of lipofectin for 48 hours. Each lane has 100 μg of protein. The blots were cut at 32.9 kD and the bottom incubated with the survivin polyclonal antibody (1:500), while the top was incubated with β-tubulin.
# Since survivin antisense oligonucleotide 903 decreased survivin protein levels by 76%, the dose dependency of 903 on survivin protein levels was further studied. As expected, mismatched oligonucleotides had no effect on the relative abundance of survivin. […] In the presence of lipofectin, survivin antisense oligonucleotide 903 was administered to MSN cells for 48 hours at 50 nM to 200 nM. Total protein (100 μg) was loaded/lane.
# Survivin antisense oligonucleotide 904 decreased survivin protein levels by 46% and 60% while survivin levels were unchanged in cells incubated with the mismatched oligonucleotide 1132. MSN cells were treated with lipofectin, survivin antisense oligonucleotide 904 or 908 at 400 nM and 600 nM, or mismatched oligonucleotide 1132 at 400 nM concentrations. Total protein (100 μg) was separated by SDS polyacrylamide gel electrophoresis and transferred to a nitrocellulose support. The blots were cut at 32.9 kD and the bottom blots incubated with the survivin polyclonal antibody (1:500), while the top blots were incubated with tubulin.
# The antisense oligonucleotides were synthesized on solid support with an automated DNA synthesizer using β-cyanoethylphosphoramidite chemistry. In order to prevent rapid degradation of the antisense oligonucleotides by cellular nucleases, oxidation was carried out with Becauge sulfurizing agent to obtain phosphorothioate backbone modified oligonucleotides. After their synthesis, the oligonucleotides were released from the solid support, deprotected, purified by reverse-phase HPLC, desalted, filtered and lyophilized. The purity and sequence integrity of oligonucleotides was ascertained by capillary gel electrophoresis and MALDI-TOF mass spectral analysis and the concentrations measured at […]. Cells were grown in 100 mm dishes and oligonucleotide treatment was performed on subconfluent cultures in the presence of Lipofectin (GIBCO) according to the manufacturer. Forty-eight hours following treatment, total protein homogenates were isolated.
# Ten micrograms of the fusion protein was incubated with the survivin antibody (1:500) at 4° C. for 2 hours to overnight prior to immunoblotting. […] Blots were cut at 32.9 kD, and the bottom part of the blots were incubated with the survivin antibody overnight at 4° C. and visualized by enhanced chemiluminescence (Enhanced Chemiluminescence, Amersham, Arlington Heights, Ill.) as previously described (Sharma et al. Cell. Motil. Cytoskeleton 27:234-247).
# [1] = 600 nM co-treated with 20 μM zVAD-fmk, 48 h (FIG. 4B)
Substance,nuclear morphology by PI staining (TC620 cells),"number of cells in metaphase, with zVAD-fmk compared with oligonucleotide alone (TC620 cells)","cell death, Trypan blue positive cells (MSN cells; MSN cells (FIG. 4A))","percentage of cells Trypan blue positive (MSN cells; 200 nM, 48 hours (FIG. 4A)) [%]","percentage of cells Trypan blue positive (MSN cells; 400 nM, 48 hours (FIG. 4A)) [%]","percentage of cells Trypan blue positive (MSN cells; 600 nM alone, 48 h (FIG. 4B))",percentage of cells Trypan blue positive (MSN cells; [1]) [%],"percentage of cells Trypan blue positive (MSN cells; 600 nM, 48 hours (FIG. 4A)) [%]",decrease in survivin protein levels (survivin; 400 nM (FIG. 4C)) [%],"decrease in survivin protein levels relative to lipofectin-treated control, normalized to β-tubulin (survivin) [%]",percentage of survivin protein over β-tubulin relative to lipofectin (survivin) [%],decrease in survivin protein levels (survivin; 600 nM (FIG. 4C)) [%],effect on survivin protein levels (survivin),"percentage of apoptotic cells (chromatin fragmentation, apoptotic bodies) by PI staining (TC620 cells; 600 nM (FIG. 8A)) [%]",percentage of cells with abnormal (multiple multilobed) nuclei by PI staining (TC620 cells; 600 nM (FIG. 8A)) [%]
"d(TCTTGGCTCTTTCTCTGTCC) (antisense dT*dC*dT*dT*dG*dG*dC*dT*dC*dT*dT*dT*dC*dT*dC*dT*dG*dT*dC*dC) [Oligo 904, 20-mer phosphorothioate survivin antisense oligonucleotide, complementary to survivin mRNA 5248-5267]",apoptotic nuclei; also recorded: abnormal macronuclei that are multilobed,approximate two-fold increase,dose-dependent increase in cell death,52,59,73%,73,62,46,64,35.7,60,effective in reducing survivin protein levels in a concentration-dependent manner,,
"d(GCTTCCCAGTCACATCCTGT) (antisense dG*dC*dT*dT*dC*dC*dC*dA*dG*dT*dC*dA*dC*dA*dT*dC*dC*dT*dG*dT) [Oligo 906, 20-mer phosphorothioate survivin antisense oligonucleotide, complementary to survivin mRNA 11897-11916]",abnormal macronuclei that are multilobed,approximate two-fold increase,,,,81%,74,,,73,26.9,,,,
"d(GCACCTAGTCTCCCTGCACC) (DNA, all phosphorothioate, methylation of C not given here) [Oligo 1132, mismatched phosphorothioate control oligonucleotide, not complementary to survivin mRNA, reference compound]",normal nuclear morphology,did not affect the number of cells in metaphase,,,23,7-11%,,22,,,,,had no effect; also recorded: did not alter survivin protein levels,2,1
